Laboratory results from patent US20130040944A1, “MGLUR4 ALLOSTERIC POTENTIATORS, COMPOSITIONS, AND METHODS OF TREATING NEUROLOGICAL DYSFUNCTION” (VANDERBILT UNIVERSITY, priority 2009, published 2013).

Target: human mGluR4 (Homo sapiens, UniProt Q14833)
Assay: potentiation of human mGluR4 in transfected CHO cells, Ca2+-sensitive dye fluorescence, EC20 agonist
Settings: hEC50, human mGluR4 potentiation; unit inferred

Chain of human mGluR4 (Q14833 33-912): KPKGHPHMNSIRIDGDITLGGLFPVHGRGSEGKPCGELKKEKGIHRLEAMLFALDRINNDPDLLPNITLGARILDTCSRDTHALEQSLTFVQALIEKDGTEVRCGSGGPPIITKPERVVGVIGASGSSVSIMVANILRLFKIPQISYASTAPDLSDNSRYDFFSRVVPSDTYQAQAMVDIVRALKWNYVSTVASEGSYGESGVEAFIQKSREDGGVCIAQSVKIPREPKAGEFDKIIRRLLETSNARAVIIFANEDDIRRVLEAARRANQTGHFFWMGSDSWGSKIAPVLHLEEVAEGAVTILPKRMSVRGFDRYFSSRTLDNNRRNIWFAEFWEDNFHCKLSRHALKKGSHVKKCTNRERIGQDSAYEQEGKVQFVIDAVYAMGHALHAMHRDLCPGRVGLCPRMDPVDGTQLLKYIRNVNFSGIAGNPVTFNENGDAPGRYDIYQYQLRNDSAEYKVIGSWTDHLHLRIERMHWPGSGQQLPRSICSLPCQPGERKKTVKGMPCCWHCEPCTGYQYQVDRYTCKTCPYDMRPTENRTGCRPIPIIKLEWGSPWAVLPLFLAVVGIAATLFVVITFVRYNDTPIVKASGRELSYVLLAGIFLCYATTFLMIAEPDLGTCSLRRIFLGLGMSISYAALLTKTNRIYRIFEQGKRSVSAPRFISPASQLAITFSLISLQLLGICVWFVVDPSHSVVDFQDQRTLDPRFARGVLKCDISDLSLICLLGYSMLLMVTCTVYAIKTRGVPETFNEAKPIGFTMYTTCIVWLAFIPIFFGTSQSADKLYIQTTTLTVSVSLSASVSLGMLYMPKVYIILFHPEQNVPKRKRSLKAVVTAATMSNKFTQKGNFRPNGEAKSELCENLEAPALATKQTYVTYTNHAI

Structure (SMILES) | EC50 [µM]
O=C(Nc1ccn(S(=O)(=O)C(F)c2ccccc2F)c1)c1ccccn1 (stereo not shown) [Example 105, N-(1-((fluoro(2-fluorophenyl)methyl)sulfonyl)-1H-pyrrol-3-yl)picolinamide] | 0.426
CC(c1ccccc1Cl)S(=O)(=O)n1ccc(NC(=O)c2ccccn2)c1 (stereo not shown) [Example 106, N-(1-((1-(2-chlorophenyl)ethyl)sulfonyl)-1H-pyrrol-3-yl)picolinamide] | 1.05
O=C(Nc1ccn(S(=O)(=O)c2cc(F)c(F)cc2Cl)c1)c1ccccn1 [Example 107, N-(1-((2-chloro-4,5-difluorophenyl)sulfonyl)-1H-pyrrol-3-yl)picolinamide] | 0.158
Cc1cc(S(=O)(=O)n2ccc(NC(=O)c3ccccn3)c2)c(Cl)cc1Cl [Example 108, N-(1-((2,4-dichloro-5-methylphenyl)sulfonyl)-1H-pyrrol-3-yl)picolinamide] | 21.1
CC(c1ccc(Cl)cc1)S(=O)(=O)n1ccc(NC(=O)c2ccccn2)c1 (stereo not shown) [Example 109, N-(1-((1-(4-chlorophenyl)ethyl)sulfonyl)-1H-pyrrol-3-yl)picolinamide] | 1.89
O=C(Nc1ccn(S(=O)(=O)c2cc(F)c(F)cc2F)c1)c1ccccn1 [Example 110, N-(1-((2,4,5-trifluorophenyl)sulfonyl)-1H-pyrrol-3-yl)picolinamide] | 0.226
O=C(Nc1cn(S(=O)(=O)c2ccc(Cl)cc2)c2ccccc12)c1ccccn1 [Example 111, N-(1-((4-chlorophenyl)sulfonyl)-1H-indol-3-yl)picolinamide] | 12.2
Cc1ccc(S(=O)(=O)n2ccc(NC(=O)c3ccccn3)c2)cc1Cl [Example 112, N-(1-((3-chloro-4-methylphenyl)sulfonyl)-1H-pyrrol-3-yl)picolinamide] | 0.129
Cc1cc(S(=O)(=O)n2ccc(NC(=O)c3ccccn3)c2)c(F)cc1Cl [Example 113, N-(1-((4-chloro-2-fluoro-5-methylphenyl)sulfonyl)-1H-pyrrol-3-yl)picolinamide] | 0.346
Cc1cc(C)c(S(=O)(=O)n2ccc(NC(=O)c3ccccn3)c2)cc1Cl [Example 114, N-(1-((5-chloro-2,4-dimethylphenyl)sulfonyl)-1H-pyrrol-3-yl)picolinamide] | 22.9
Cc1c(F)cccc1S(=O)(=O)n1ccc(NC(=O)c2ccccn2)c1 [Example 115, N-(1-((3-fluoro-2-methylphenyl)sulfonyl)-1H-pyrrol-3-yl)picolinamide] | 0.393
Cc1c(Cl)cccc1S(=O)(=O)n1ccc(NC(=O)c2ccccn2)c1 [Example 116, N-(1-((3-chloro-2-methylphenyl)sulfonyl)-1H-pyrrol-3-yl)picolinamide] | 0.286
O=C(Nc1ccn(S(=O)(=O)c2ccc(Cl)nc2)c1)c1ccccn1 [Example 118, N-(1-((6-chloropyridin-3-yl)sulfonyl)-1H-pyrrol-3-yl)picolinamide] | 0.217
O=C(Nc1ccn(S(=O)(=O)c2ccc(Cl)cn2)c1)c1ccccn1 [Example 121, N-(1-((5-chloropyridin-2-yl)sulfonyl)-1H-pyrrol-3-yl)picolinamide] | 0.162
CCc1ccc(S(=O)(=O)n2ccc(NC(=O)c3ccccn3)c2)cc1 [Example 122, N-(1-((4-ethylphenyl)sulfonyl)-1H-pyrrol-3-yl)picolinamide] | 0.133
O=C(Nc1ccn(S(=O)(=O)c2ccco2)c1)c1ccccn1 [Example 123, N-(1-(furan-2-ylsulfonyl)-1H-pyrrol-3-yl)picolinamide] | 0.686
O=C(Nc1ccn(S(=O)(=O)c2cccc(Cl)c2F)c1)c1ccccn1 [Example 124, N-(1-((3-chloro-2-fluorophenyl)sulfonyl)-1H-pyrrol-3-yl)picolinamide] | 0.084
O=C(Nc1ccn(S(=O)(=O)c2ccoc2)c1)c1ccccn1 [Example 125, N-(1-(furan-3-ylsulfonyl)-1H-pyrrol-3-yl)picolinamide] | 1.49
O=C(Nc1ccn(S(=O)(=O)c2cc(F)c(F)c(F)c2)c1)c1ccccn1 [Example 126, N-(1-((3,4,5-trifluorophenyl)sulfonyl)-1H-pyrrol-3-yl)picolinamide] | 0.276
